Measured values published in publication PMC7290441 (Viruses, 2020).
Where a name gives a salt, the structure may show the parent alone. Read-outs that look alike come from different tables or passages of the source.

Key:
[1] = tested on: A/Hong Kong/8/1968 (H3N2)
[2] = tested on: A/Puerto Rico/8/1934 (H1N1); assay: microbe, parasite or virus in culture; settings: Influenza A virus, H1N1, MDCK, 72 h, read-out: EC50 against A/Puerto Rico/8/1934 (H1N1)
[3] = tested on: A/Hong Kong/8/1968 (H3N2); assay: microbe, parasite or virus in culture; settings: Influenza A virus, H3N2, MDCK, 72 h, read-out: EC50 against A/Hong Kong/8/1968 (H3N2)
B/Lee/40 = assay: microbe, parasite or virus in culture; settings: Influenza B virus, MDCK, 72 h, read-out: EC50 against B/Lee/40
[4] = tested on: A/California/7/2009 (H1N1); assay: microbe, parasite or virus in culture; settings: Influenza A virus, H1N1, MDCK, 72 h, read-out: EC50 against A/California/7/2009 (H1N1)
[5] = tested on: A/Brisbane/59/2007 (H1N1); assay: microbe, parasite or virus in culture; settings: Influenza A virus, H1N1, MDCK, 72 h, read-out: EC50 against A/Brisbane/59/2007 (H1N1)
A/Seoul/11/1988 (H3N2) [6] = assay: microbe, parasite or virus in culture; settings: Influenza A virus, H3N2, MDCK, 72 h, read-out: EC50 against A/Seoul/11/1988 (H3N2)
A/Perth/16/2009 (H3N2) = assay: microbe, parasite or virus in culture; settings: Influenza A virus, H3N2, MDCK, 72 h, read-out: EC50 against A/Perth/16/2009 (H3N2)
[7] = tested on: A/Brisbane/10/2007 (H3N2); assay: microbe, parasite or virus in culture; settings: Influenza A virus, H3N2, MDCK, 72 h, read-out: EC50 against A/Brisbane/10/2007 (H3N2)
[8] = tested on: A/Victoria/361/2011-like (H3N2); assay: microbe, parasite or virus in culture; settings: Influenza A virus, H3N2, MDCK, 72 h, read-out: EC50 against A/Victoria/361/2011-like (H3N2)
B/Brisbane/60/2008 = assay: microbe, parasite or virus in culture; settings: Influenza B virus, MDCK, 72 h, read-out: EC50 against B/Brisbane/60/2008
[9] = Cytotoxicity to mock-infected MDCK cells (MTT); settings: dog
[10] = tested on: A/Puerto Rico/8/1934 (H1N1); settings: MDCK cells
[11] = tested on: A/California/7/2009 (H1N1); settings: MDCK cells
[12] = tested on: A/Brisbane/59/2007 (H1N1); settings: MDCK cells
influenza B strain (Lee) = assay: Chemical library screen, CPE reduction assay, influenza B; type: cell-based, influenza B virus; settings: 20 µM
[13] = tested on: PR8 virus (viral proteins NP, HA, M1); type: cell-based, influenza A virus; settings: […]; nylidrin 100 μM, OSV-C 10 μM, RBV 100 μM
A/Seoul/11/1988 (H3N2) [14] = settings: MDCK cells
[15] = tested on: influenza A viruses (PR8 and HK); assay: microbe, parasite or virus in culture; settings: PR8, MDCK, read-out: viability of infected MDCK cells

Question: Which results are given for CC(CCc1ccccc1)NCC(O)c1ccc(O)c(C(N)=O)c1 (stereo not drawn) [Labetalol, labetalol]?
Answer: S.I. (CC50/EC50), A/Hong Kong/8/1968 (H3N2) [1]: (>11.3); EC50 [2]: > 100 µM; EC50 [3]: 44 ± 9.7 µM; EC50 (B/Lee/40): > 100 µM; EC50 [4]: > 100 µM; EC50 [5]: > 100 µM; EC50 (A/Seoul/11/1988 (H3N2) [6]): > 100 µM; EC50 (A/Perth/16/2009 (H3N2)): > 100 µM; EC50 [7]: > 100 µM; EC50 [8]: > 100 µM; EC50 (B/Brisbane/60/2008): > 100 µM; CC50 at 3 days [9]: 498.1 ± 0.5 µM

Question: For CC(C(O)c1ccc(O)cc1)N1CCC(Cc2ccccc2)CC1 (stereo not drawn) [Ifenprodil, ifenprodil], which “S.I. (CC50/EC50), A/Puerto Rico/8/1934 (H1N1)” value [10] is on record?
Answer: The value was “(74.0)”.

Question: What about the “S.I. (CC50/EC50), A/Hong Kong/8/1968 (H3N2)” value [1] of the same compound?
Answer: The value was “(29.0)”.

Question: What about the “S.I. (CC50/EC50), A/California/7/2009 (H1N1)” value [11] of the same compound?
Answer: Its value is “(465.0)”.

Question: What about the “S.I. (CC50/EC50), A/Brisbane/59/2007 (H1N1)” value [12] of the same compound?
Answer: The value was “(96.7)”.

Question: And the EC50 [2]?
Answer: Its EC50 is 6.6 ± 0.4 µM.

Question: And the EC50 [3]?
Answer: The EC50 was 16.9 ± 3 µM.

Question: And the EC50 (B/Lee/40)?
Answer: The EC50 was greater than 100 µM.

Question: What about the EC50 [4] of the same compound?
Answer: Its EC50 is 1.1 ± 0.1 µM.

Question: And the EC50 [5]?
Answer: The EC50 was 5.1 ± 0.3 µM.

Question: What about the EC50 (A/Seoul/11/1988 (H3N2) [6]) of the same compound?
Answer: The EC50 was 37.9 ± 7.7 µM.

Question: And the EC50 (A/Perth/16/2009 (H3N2))?
Answer: Its EC50 is greater than 100 µM.

Question: And the EC50 [7]?
Answer: Its EC50 is greater than 100 µM.

Question: What about the EC50 [8] of the same compound?
Answer: Its EC50 is greater than 100 µM.

Question: And the EC50 (B/Brisbane/60/2008)?
Answer: The EC50 was greater than 100 µM.

Question: What about the CC50 at 3 days [9] of the same compound?
Answer: Its CC50 at 3 days is 488.2 ± 0.5 µM.

Question: Which EC50 [2] does the source give for CN(C)C(=O)Oc1cc(OC(=O)N(C)C)cc(C(O)CNC(C)(C)C)c1 (stereo not drawn) [Bambuterol, bambuterol] here?
Answer: The EC50 was greater than 100 µM.

Question: And the EC50 [3]?
Answer: Its EC50 is greater than 100 µM.

Question: What about the EC50 (B/Lee/40) of the same compound?
Answer: Its EC50 is greater than 100 µM.

Question: What about the CC50 at 3 days [9] of the same compound?
Answer: The CC50 at 3 days was greater than 900 µM.

Question: Which “S.I. (CC50/EC50), A/Hong Kong/8/1968 (H3N2)” value [1] does the source give for NC12CC3CC(CC(C3)C1)C2 [AMT, amantadine hydrochloride] here?
Answer: Its value is “(>1200)”.

Question: What about the “S.I. (CC50/EC50), A/Brisbane/59/2007 (H1N1)” value [12] of the same compound?
Answer: Its value is “(>750)”.

Question: And the EC50 [2]?
Answer: Its EC50 is greater than 100 µM.

Question: And the EC50 [3]?
Answer: The EC50 was 0.8 ± 0.1 µM.

Question: What about the EC50 (B/Lee/40) of the same compound?
Answer: The EC50 was greater than 100 µM.

Question: What about the EC50 [4] of the same compound?
Answer: The EC50 was greater than 100 µM.

Question: And the EC50 [5]?
Answer: The EC50 was 1.2 ± 0.4 µM.

Question: What about the EC50 (A/Seoul/11/1988 (H3N2) [6]) of the same compound?
Answer: The EC50 was 0.3 ± 0.1 µM.

Question: What about the EC50 (A/Perth/16/2009 (H3N2)) of the same compound?
Answer: The EC50 was greater than 100 µM.

Question: What about the EC50 [7] of the same compound?
Answer: The EC50 was greater than 100 µM.

Question: And the EC50 [8]?
Answer: The EC50 was greater than 100 µM.

Question: What about the EC50 (B/Brisbane/60/2008) of the same compound?
Answer: The EC50 was greater than 100 µM.

Question: What about the CC50 at 3 days [9] of the same compound?
Answer: The CC50 at 3 days was greater than 900 µM.

Question: Which results are given for CC(CCc1ccccc1)NC(C)C(O)c1ccc(O)cc1 (stereo not drawn) [Nylidrin, nylidrin]?
Answer: CPE-reduction (influenza B strain (Lee)): no benefit; viral proteins NP, HA and M1 (western blot) [13]: not detected; S.I. (CC50/EC50), A/Puerto Rico/8/1934 (H1N1) [10]: (76.3); S.I. (CC50/EC50), A/Puerto Rico/8/1934 (H1N1) ([10]; listed as nylidrin): 76.3; S.I. (CC50/EC50), A/California/7/2009 (H1N1) [11]: (332.8); S.I. (CC50/EC50), A/Brisbane/59/2007 (H1N1) [12]: (156.9); S.I. (CC50/EC50), A/Seoul/11/1988 (H3N2) (A/Seoul/11/1988 (H3N2) [14]): (14.3); EC50 [2]: 7.2 ± 0.2 µM; EC50 [3]: 12.1 ± 1.6 µM; EC50 (B/Lee/40): > 100 µM; EC50 [4]: 1.7 ± 0.5 µM; EC50 [5]: 3.5 ± 1.6 µM; EC50 (A/Seoul/11/1988 (H3N2) [6]): 38.8 ± 19.4 µM; EC50 (A/Perth/16/2009 (H3N2)): > 100 µM; EC50 [7]: > 100 µM; EC50 [8]: > 100 µM; EC50 (B/Brisbane/60/2008): > 100 µM; viability at 20 µM [15]: 80%; CC50 at 3 days [9]: 549.2 ± 0.5 µM
